{
  "source": "PubChem BioAssay AID1645848",
  "data": [
    {"conditions": "buffer; pH 7.4; 6.0 h; 150.0 µM", "units": {"solubility kinetic": "µg/mL"}, "values": [
      {"compound": "O=C(Nc1ncc([S+](=O)([O-])N2CCOCC2)s1)c1cccc(Br)c1", "solubility kinetic": 2.94},
      {"compound": "Oc1ccc(CNc2cccc(F)c2)c2cccnc12", "solubility kinetic": "< 1"},
      {"compound": "N=c1c2c(ccn1CCc1ccccc1)Oc1ccc3ccccc3c1C2c1ccccc1", "note": "(centres undefined)", "solubility kinetic": "< 1"},
      {"compound": "Cc1ccc(NS(=O)(=O)c2ccc3c(c2)NC(=O)CO3)cc1C", "solubility kinetic": 7.82},
      {"compound": "O=C(NCCCc1ccccc1)C1CCN(c2nc(-c3ccc(Br)cc3)cs2)CC1", "solubility kinetic": 3.28},
      {"compound": "O=C(Nc1ccc(Br)cc1)c1ccc(F)c(S(=O)(=O)NC2CCCCCC2)c1", "solubility kinetic": "< 1"},
      {"compound": "COc1ccc(NC(=O)C2=C(C)NC(Nc3nc4ccccc4o3)=NC2c2ccccc2Br)cc1", "note": "(centres undefined)", "solubility kinetic": "< 1"},
      {"compound": "Oc1ccc(CNc2ccccc2C(F)(F)F)c2cccnc12", "solubility kinetic": 1.23},
      {"compound": "CC(C)c1ccccc1-c1ncc(F)c(NCc2ccc(-n3ccnn3)cc2)n1", "solubility kinetic": 2.13},
      {"compound": "O=C(CSc1nc(-c2ccc(F)cc2)[nH]c1-c1ccc(F)cc1)Nc1ccc2c(c1)OCCO2", "solubility kinetic": "< 1"},
      {"compound": "N#CC1(c2ccc(NC(=O)c3cccnc3NCc3ccncc3)cc2)CCCC1", "solubility kinetic": "< 1"},
      {"compound": "Cc1ccccc1C(=O)N1CCC(C(=O)N2CCC(N3Cc4ccccc4C3=O)CC2)CC1", "solubility kinetic": "> 44"},
      {"compound": "CC(=O)Nc1cccc(Nc2nc3ccccc3n3c(C)nnc23)c1", "solubility kinetic": "< 1"},
      {"compound": "CCCc1oc2ccc(NS(=O)(=O)c3ccc(OC)cc3)cc2c1C(=O)OCC", "solubility kinetic": "< 1"},
      {"compound": "Cc1ccnc(NC(=S)N2CCN(c3cccc(C(F)(F)F)n3)CC2)c1", "solubility kinetic": 3.88},
      {"compound": "COc1ccc(NC(=O)c2[nH]c(C)c(C(C)=O)c2C)cc1[S+](=O)([O-])Nc1ccccc1C#N", "solubility kinetic": 55.6},
      {"compound": "Cc1ccc(S(=O)(=O)Nc2ccccc2C(=O)Nc2ccc(-c3ccccc3)cc2)cc1", "solubility kinetic": "< 1"},
      {"compound": "O=C(CCCN1CCC(O)(c2ccc(Cl)cc2)CC1)c1ccc(F)cc1", "solubility kinetic": 6.42},
      {"compound": "Cc1ccc(-c2cc(C(=O)Nc3ccc(-c4nn[nH]n4)cc3)c3ccccc3n2)cc1C", "solubility kinetic": 7.58},
      {"compound": "Cc1ccc(S(=O)(=O)NCCC(=O)Nc2nc(-c3ccccc3)cs2)cc1", "solubility kinetic": "< 1"},
      {"compound": "COc1ccc2[nH]c(=O)c(-c3noc(-c4ccc(F)cc4)n3)cc2c1", "solubility kinetic": "< 1"},
      {"compound": "COc1ccc(OC)c(-c2nnc3ccc(-c4ccc(OC)c(O[C@@H]5CCOC5)c4)nn23)c1", "solubility kinetic": "> 66"},
      {"compound": "O=C1C(c2ccc(C(F)(F)F)cc2)=C(Nc2ccc(Cl)cc2)c2ccccc21", "solubility kinetic": "< 1"},
      {"compound": "Cc1csc2nc(-c3cccc(NC(=O)c4cccc(F)c4)c3)cn12", "solubility kinetic": "< 1"},
      {"compound": "CC(Nc1ncnc2c1cnn2-c1cccc(Cl)c1)c1ccccc1", "note": "(centres undefined)", "solubility kinetic": "< 1"},
      {"compound": "Nc1nc2c(s1)C(c1cccc(Cl)c1Cl)CC(=O)N2", "note": "(centres undefined)", "solubility kinetic": "< 1"},
      {"compound": "CC(=O)c1ccc(N2CCN(S(=O)(=O)c3ccc4c(c3)n(C)c(=O)n4C)CC2)cc1", "solubility kinetic": 2.6},
      {"compound": "COc1ccc(-n2nc(C)c([C@@H]3C=C[C@@H](NCc4ccc(N(C)C)cc4)C3)c2C)cc1", "solubility kinetic": 50.3},
      {"compound": "O=C1Nc2ccccc2C12CC2c1cc(Cl)c(O)c(Cl)c1", "note": "(centres undefined)", "solubility kinetic": "< 1"},
      {"compound": "NC(=O)C1CCN(c2nc(-c3ccc4c(c3)OCO4)cs2)CC1", "solubility kinetic": "> 49"},
      {"compound": "Fc1cc(Nc2nc(-c3ccncc3)nc3ccccc23)ccc1-n1cncn1", "solubility kinetic": "< 1"},
      {"compound": "COC(=O)[C@]12CCC(C)(C)C[C@H]1[C@H]1C(=O)C=C3[C@@]4(C)C=C(C#N)C(=O)C(C)(C)[C@@H]4CC[C@@]3(C)[C@]1(C)CC2", "solubility kinetic": 1.99},
      {"compound": "COc1ccc(NC(=O)c2c(C)cccc2C)cc1[S+](=O)([O-])N1CCCCCC1", "solubility kinetic": 15.8},
      {"compound": "O=S(=O)(c1ccccc1)c1nc(-c2ccc(F)cc2)oc1N1CCCCCC1", "solubility kinetic": "< 1"},
      {"compound": "O=C(Nc1ccc(-c2ccccc2)cc1)[C@H](Cc1ccc(O[S+](=O)([O-])c2cccc3cnccc23)cc1)N[S+](=O)([O-])c1cccc2cnccc12", "solubility kinetic": "< 1"},
      {"compound": "CCOc1ccc(CCNC(=O)c2cc3cnccc3n2Cc2cccc(C)n2)cc1OCC", "solubility kinetic": "> 68"},
      {"compound": "Cc1ccc(S(=O)(=O)Nc2cc(F)c(F)cc2C(=O)Nc2nc(-c3ccccc3)cs2)cc1", "solubility kinetic": "< 1"},
      {"compound": "Cc1cc2c(-c3cccc(O)c3)nc(-c3c(C)noc3C)cc2[nH]1", "solubility kinetic": "< 1"},
      {"compound": "COc1cccc(CNc2ccc(S(=O)(=O)Nc3cccc(N4CCNCC4)c3)cc2)c1O", "solubility kinetic": 51.1},
      {"compound": "CCOC(=O)c1nn(-c2ccc(OC)cc2)c(=O)c2c(N)scc12", "solubility kinetic": 5.68},
      {"compound": "CC(=O)c1c(C)[nH]c(C(=O)Nc2cccc(S(=O)(=O)N3CCCCCC3)c2)c1C", "solubility kinetic": 2.11},
      {"compound": "Fc1ccc(Nc2nc(-n3ccnc3)nc3ccccc23)cc1F", "solubility kinetic": "< 1"},
      {"compound": "COc1ccccc1-c1[nH]nc2ncc(-c3ccc(C)cc3)nc12", "solubility kinetic": "< 1"},
      {"compound": "CNC(=O)c1cccc(-c2cnc(Nc3cccc(C(F)(F)F)c3)c3c2CCO3)c1", "solubility kinetic": "< 1"},
      {"compound": "COc1cccc(-c2noc(Nc3ccc4c(c3)OCCO4)n2)c1", "solubility kinetic": "< 1"},
      {"compound": "O=C(Nc1ccc(S(=O)(=O)Nc2nccs2)cc1)c1ccncc1", "solubility kinetic": 19.5},
      {"compound": "Cc1ccc2oc(NC3=NC(c4[nH]ncc4Cl)C4=C(CCCC4=O)N3)nc2c1", "note": "(centres undefined)", "solubility kinetic": 1.35},
      {"compound": "CCCN1C(CC(C)C)=NS(=O)(=O)c2cc(NC(=O)c3ccco3)ccc21", "solubility kinetic": "< 1"},
      {"compound": "CCOC(=O)N1CCN(Cc2nc3cc(NC(=O)CC(C)C)ccc3n2C(C)C)CC1", "solubility kinetic": "> 63"}
    ]}
  ]
}
